# B1: srIκB: non-degradable IκBα protein with mutations at serine residues 32 and 36 (protein, listed as Homo sapiens)
# chain: MFQAAERPQEWAMEGPRDGLKKERLLDDRHDAGLDAMKDEEYEQMVKELQEIRLEPQEVPRGSEPWKQQLTEDGDSFLHLAIIHEEKALTMEVIRQVKGDLAFLNFQNNLQQTPLHLAVITNQPEIAEALLGAGCDPELRDFRGNTPLHLACEQGCLASVGVLTQSCTTPHLHSILKATNYNGHTCLHLASIHGYLGIVELLVSLGADVNAQEPCNGRTALHLAVDLQNPDLVSLLLKCGADVNRVTYQGYSPYQLTWGRPSTRIQQQLGQLTLENLQMLPESEDEESYDTESEFTEFTEDELPYDDCVFGGQRLTL
# Legend:
# [1] = test system: THP-1 cells; experiment: LPS-stimulated THP-1 cells, cytokine secretion (ELISA); type: cell-based, human; conditions: JSH-23 50 μM, Exo-srIκB 5×10^6 particles
# Method: (A) HEK293-NF-κB-luciferase cells (2×10^4 cells) were cultured either with Exo-Naïve or with Exo-srIκB 2×10^5 particles. After 24 h, the cells were treated with 0.5 ng/ml TNF-α for an additional 18 h. Luciferase activities were measured and normalized. (B) Exo-srIκB dose-dependently repressed NF-κB activation in NF-κB-luciferase cells. (C) THP-1 cells (5×10^5 cells) were stimulated with […] LPS and then treated with Exo-srIκBs 5×10^6 particles. The supernatants were collected and assayed for the production of TNF-α and monocyte chemoattractant protein (MCP)-1. […] Cells were harvested into a single-cell suspension and assessed through flow cytometry using specific phycoerythrin (PE)-conjugated antibodies against human intercellular cell adhesion molecule (ICAM)-1.
# The TNF-α, IL-8 and MCP-1 levels in supernatants collected from THP-1 and HUVEC cultures were measured using commercial ELISA kits (R&D Systems, Minneapolis, MN, USA), and NF-κB activity in HUVECs was measured using the Trans AM NF-κB p65 kit (Active Motif, Carlsbad, CA, USA). TNF-α, CCL-4/macrophage inflammatory protein (MIP)-1β, IL-6, and IL-1β levels in mouse plasma collected through cardiac puncture at the indicated time points after the high-grade CLP procedure were measured using the Mouse Magnetic Luminex eScreening Assay kit (R&D Systems). […]
# [2] = test system: experimental ischemic AKI model; conditions: by lowering inflammatory cytokine expression and macrophages/monocyte accumulation; cited from earlier work
# [3] = test system: lung IRI model; conditions: decreases neutrophil infiltration and pulmonary edema; cited from earlier work
molecule,measurement,setting,value
Cc1ccc(NCCCc2ccccc2)c(N)c1 [JSH-23],inhibiting LPS-induced NF-κB activation and cytokine production: Exo-srIκB versus JSH-23,[1],comparable effects
infliximab: anti-TNF-α agent,effect in the experimental ischemic AKI model,[2],protective effects
B1,effect in the lung IRI model,[3],proven protective effects
